Reference: patent US8415469B2, “Compounds and methods for kinase modulation, and indications therefor” (Plexxikon Inc., priority 2005, dated 2013)

Legend:
Format in all cases: biochemical
Met = target: T1, Met (Homo sapiens, UniProt P08581); assay: AlphaScreen kinase assay, Met; details: read-out: IC50, activity toward kinase Met
T1 construct: P1818.pETN6 BI-PTP MET G1056-G1364-X WT; His6 (N); made in house; host or cells: E. coli (PTP1B co-expressed)
Method in brief: (§1)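 Stock 20 mM compound in DMSO, diluted 1:3 serially to 8 final concentrations. Kinase phosphorylates biotinylated peptide; donor (streptavidin) and acceptor (anti-phospho antibody) beads then associate. Reduced acceptor emission indicates inhibition.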

Akt3 = Akt3 (Homo sapiens, UniProt Q9Y243); assay: AlphaScreen kinase assay, Akt3; details: read-out: IC50, activity toward kinase Akt3
Chain of Akt3 (Q9Y243 whole entry): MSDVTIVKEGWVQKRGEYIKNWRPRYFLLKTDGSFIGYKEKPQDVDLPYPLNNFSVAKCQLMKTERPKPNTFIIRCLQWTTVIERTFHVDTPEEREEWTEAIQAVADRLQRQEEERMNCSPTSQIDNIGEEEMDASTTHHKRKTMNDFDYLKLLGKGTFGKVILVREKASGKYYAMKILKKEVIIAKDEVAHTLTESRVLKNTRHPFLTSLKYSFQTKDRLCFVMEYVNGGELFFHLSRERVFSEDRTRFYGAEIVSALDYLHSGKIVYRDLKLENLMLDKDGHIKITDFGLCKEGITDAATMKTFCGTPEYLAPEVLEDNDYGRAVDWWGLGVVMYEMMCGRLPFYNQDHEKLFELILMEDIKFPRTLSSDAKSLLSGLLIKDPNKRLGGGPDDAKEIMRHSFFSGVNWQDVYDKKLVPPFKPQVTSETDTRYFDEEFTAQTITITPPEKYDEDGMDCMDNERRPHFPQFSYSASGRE
Method in brief: as §1

Jnk3 = target: T2, Jnk3 (Homo sapiens, UniProt P53779); assay: AlphaScreen kinase assay, Jnk3; details: read-out: IC50, activity toward kinase Jnk3
T2 construct: purchased Upstate Biotechnology
T2 sequence (P53779 whole entry): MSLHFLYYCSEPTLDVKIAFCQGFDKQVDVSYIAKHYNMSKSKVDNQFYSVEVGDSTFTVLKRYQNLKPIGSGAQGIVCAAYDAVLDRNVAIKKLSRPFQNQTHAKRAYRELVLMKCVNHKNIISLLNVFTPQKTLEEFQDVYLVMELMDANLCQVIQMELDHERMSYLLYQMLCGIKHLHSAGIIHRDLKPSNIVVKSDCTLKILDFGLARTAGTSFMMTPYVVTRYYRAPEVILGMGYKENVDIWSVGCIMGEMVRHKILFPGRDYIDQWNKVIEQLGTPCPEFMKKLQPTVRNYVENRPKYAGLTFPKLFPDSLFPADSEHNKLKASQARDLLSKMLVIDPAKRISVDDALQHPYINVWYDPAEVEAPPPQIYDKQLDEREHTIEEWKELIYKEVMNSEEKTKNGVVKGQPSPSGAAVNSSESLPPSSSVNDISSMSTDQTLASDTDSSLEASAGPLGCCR

Jak3 = target: T3, Jak3 (Homo sapiens, UniProt P52333); assay: AlphaScreen kinase assay, Jak3; details: read-out: IC50, activity toward kinase Jak3
T3 sequence (P52333 1-1124): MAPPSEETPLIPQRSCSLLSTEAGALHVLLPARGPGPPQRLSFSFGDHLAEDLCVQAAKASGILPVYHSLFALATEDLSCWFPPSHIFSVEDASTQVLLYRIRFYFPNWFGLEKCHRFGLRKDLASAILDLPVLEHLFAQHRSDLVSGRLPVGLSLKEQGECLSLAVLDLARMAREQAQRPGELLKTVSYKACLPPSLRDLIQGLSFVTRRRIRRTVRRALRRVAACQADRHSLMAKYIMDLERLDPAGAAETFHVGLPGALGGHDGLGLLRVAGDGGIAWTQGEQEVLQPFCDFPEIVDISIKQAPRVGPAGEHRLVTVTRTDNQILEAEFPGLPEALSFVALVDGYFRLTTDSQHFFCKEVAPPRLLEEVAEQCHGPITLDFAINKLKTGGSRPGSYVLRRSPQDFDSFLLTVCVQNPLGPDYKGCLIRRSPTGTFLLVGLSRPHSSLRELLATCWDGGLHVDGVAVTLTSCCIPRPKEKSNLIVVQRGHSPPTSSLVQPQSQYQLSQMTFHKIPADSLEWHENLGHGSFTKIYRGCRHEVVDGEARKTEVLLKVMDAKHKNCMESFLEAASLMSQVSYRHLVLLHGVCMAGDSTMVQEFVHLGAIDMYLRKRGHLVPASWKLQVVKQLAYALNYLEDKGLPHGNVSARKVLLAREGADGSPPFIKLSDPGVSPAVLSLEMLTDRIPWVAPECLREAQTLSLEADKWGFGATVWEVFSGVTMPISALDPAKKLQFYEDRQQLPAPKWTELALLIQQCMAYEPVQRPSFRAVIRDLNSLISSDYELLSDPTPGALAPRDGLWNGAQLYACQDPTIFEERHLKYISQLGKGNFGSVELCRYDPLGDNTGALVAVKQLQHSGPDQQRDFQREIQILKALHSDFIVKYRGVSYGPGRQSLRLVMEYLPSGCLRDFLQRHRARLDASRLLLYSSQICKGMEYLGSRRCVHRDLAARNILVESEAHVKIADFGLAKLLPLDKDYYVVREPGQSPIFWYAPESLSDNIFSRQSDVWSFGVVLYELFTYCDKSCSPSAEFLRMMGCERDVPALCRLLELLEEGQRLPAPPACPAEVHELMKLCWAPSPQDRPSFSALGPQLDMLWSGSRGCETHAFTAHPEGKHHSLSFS
Method in brief: as §1

Fak = target: T4, Fak (Homo sapiens, UniProt Q05397); assay: AlphaScreen kinase assay, Fak; details: read-out: IC50, activity toward kinase Fak
T4 construct: P1358.pFastBacHtb FAK S411-Q686-X; His6 with pFastBacHTb leader (TEV site) (N); made in house; host or cells: Sf9 (baculovirus)
T4 sequence (Q05397 411-686): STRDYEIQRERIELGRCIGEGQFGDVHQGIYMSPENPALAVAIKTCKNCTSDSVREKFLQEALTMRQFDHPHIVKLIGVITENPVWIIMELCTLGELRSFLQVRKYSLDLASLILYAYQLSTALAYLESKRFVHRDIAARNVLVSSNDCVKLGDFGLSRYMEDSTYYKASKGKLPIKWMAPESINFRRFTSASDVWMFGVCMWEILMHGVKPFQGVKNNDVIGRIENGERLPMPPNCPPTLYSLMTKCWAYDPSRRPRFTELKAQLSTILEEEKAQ

c-Raf-1 = target: T5, c-Raf-1 (Homo sapiens, UniProt P04049); assay: AlphaScreen kinase assay, c-Raf-1; details: read-out: IC50, activity toward kinase c-Raf-1
T5 construct: purchased Upstate Biotechnology
T5 sequence (P04049 whole entry): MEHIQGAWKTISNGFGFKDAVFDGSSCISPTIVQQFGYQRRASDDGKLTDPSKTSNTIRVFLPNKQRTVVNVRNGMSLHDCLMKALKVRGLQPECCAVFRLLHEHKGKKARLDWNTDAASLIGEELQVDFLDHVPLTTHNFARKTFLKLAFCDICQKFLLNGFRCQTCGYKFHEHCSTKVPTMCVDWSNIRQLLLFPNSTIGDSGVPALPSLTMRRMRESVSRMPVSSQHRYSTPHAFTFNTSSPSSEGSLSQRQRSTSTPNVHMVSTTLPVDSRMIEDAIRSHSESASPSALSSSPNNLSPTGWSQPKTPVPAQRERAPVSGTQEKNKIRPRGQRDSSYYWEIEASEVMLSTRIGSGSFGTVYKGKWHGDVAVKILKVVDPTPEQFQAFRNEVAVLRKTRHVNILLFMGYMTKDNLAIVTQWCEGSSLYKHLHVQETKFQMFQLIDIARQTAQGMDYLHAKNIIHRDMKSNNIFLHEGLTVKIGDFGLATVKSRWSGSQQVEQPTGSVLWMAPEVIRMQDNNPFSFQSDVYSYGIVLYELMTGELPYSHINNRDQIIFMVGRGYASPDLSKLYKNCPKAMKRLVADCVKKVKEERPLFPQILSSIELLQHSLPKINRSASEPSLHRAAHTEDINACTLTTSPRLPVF

Flt1 = target: T6, Flt1 (Homo sapiens, UniProt P17948); assay: AlphaScreen kinase assay, Flt1; details: read-out: IC50, activity toward kinase Flt1
T6 construct: P1826.pETN6 BI-PTP FLT1 M799-D1165-X WT; His6 (N); made in house; host or cells: E. coli (PTP1B co-expressed)
T6 sequence (P17948 with tags, fused parts or gaps): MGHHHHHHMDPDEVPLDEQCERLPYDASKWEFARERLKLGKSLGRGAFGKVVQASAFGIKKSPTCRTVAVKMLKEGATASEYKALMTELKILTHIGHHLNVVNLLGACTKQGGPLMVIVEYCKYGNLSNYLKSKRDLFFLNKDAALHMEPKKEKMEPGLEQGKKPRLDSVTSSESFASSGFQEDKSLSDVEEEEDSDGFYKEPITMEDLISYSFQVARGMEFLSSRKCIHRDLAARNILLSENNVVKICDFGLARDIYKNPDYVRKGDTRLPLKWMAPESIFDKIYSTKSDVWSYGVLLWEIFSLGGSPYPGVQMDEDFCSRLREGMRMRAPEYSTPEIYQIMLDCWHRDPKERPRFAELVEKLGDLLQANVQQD

Measured: IC50

T1 sequence (P08581 with tags, fused parts or gaps): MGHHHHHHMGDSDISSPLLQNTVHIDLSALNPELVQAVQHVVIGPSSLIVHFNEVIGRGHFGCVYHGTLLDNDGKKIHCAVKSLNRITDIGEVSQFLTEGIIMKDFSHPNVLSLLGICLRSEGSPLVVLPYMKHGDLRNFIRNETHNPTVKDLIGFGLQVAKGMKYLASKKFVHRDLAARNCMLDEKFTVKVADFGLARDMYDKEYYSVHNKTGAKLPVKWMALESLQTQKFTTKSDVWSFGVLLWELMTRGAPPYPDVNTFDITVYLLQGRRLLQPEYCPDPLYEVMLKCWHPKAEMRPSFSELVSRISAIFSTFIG

Nc1cccc(-c2cnc3[nH]cc(C(=O)c4cccc(O)c4F)c3c2)c1 [Compound P-0004, [5-(3-amino-phenyl)-1H-pyrrolo[2,3-b]pyridin-3-yl]-(2-fluoro-3-hydroxy-phenyl)methanone]
≤ 10 µM: all assays above

NC(=O)c1cccc(-c2cnc3[nH]cc(C(=O)c4cccc(O)c4F)c3c2)c1 [Compound P-0034, 3-[3-(2-Fluoro-3-hydroxy-benzoyl)-1H-pyrrolo[2,3-b]pyridin-5-yl]benzamide]
≤ 10 µM: all assays above
